# From US5516768A, “Uncompetitive inhibition of steroid and 5α-reductose” (priority 1990, dated 1996)
# Experiments:
# [1] = system: steroid 5-α-reductase; experiment: kinetic mechanism of inhibition versus testosterone (competitive / uncompetitive); type: biochemical; conditions: competitive = binds E-NADPH; uncompetitive = binds E-NADP+
# Text: Dead-end inhibitors of bisubstrate enzymes which follow ordered kinetic mechanisms can associate to one or more existing enzyme species. With steroid 5-α-reductase, enzyme forms to which such a steroidal-inhibitor might bind would include free enzyme, E, and enzyme binary complexes with cofactor, E-NADPH and E-NADP^+.
# The response of the velocity of enzyme catalysis with varying concentrations of testosterone in the presence of an inhibitor that binds to the E-NADPH complex can be described by equation 1; this model is denoted as competitive inhibition versus the variable substrate, in this case testosterone.
# v=VM A/[Ka (1+I/Kis)+A] (1)
# v=VM A/[Ka +A(1+K/Kii)] (2)
# The results of these analyses are typically expressed in double reciprocal plots: 1/velocity versus 1/[testosterone].
# [2] = system: seminal vesicle; experiment: testosterone induced regrowth of the involuted seminal vesicle of castrated male rats; type: in vivo, rat; conditions: castrated + testosterone implant, 10 days, N = 5 rats/group
# Text: (§1) When male rats are castrated and allowed to go untreated for 1 month, the ventral prostates involutes to approximately 10% of its original total cell number. If exogeneous testosterone is given to these castrated rats to restore the physiological serum level of testosterone, the involuted ventral prostate rapidly proliferates restoring its original cell content within 2-3 weeks. Using the ability to inhibit this testosterone induced regrowth of the rat ventral prostate, the efficacy and potency of twice daily oral administering of the "competitive" inhibitor and the "uncompetitive" inhibitor individually and in combination were compared.
# (§2) To perform these experiments, a total of 50 male Sprague Dawley rats (From Harlan Sprague-Dawley, Inc.) of 250-300 gm starting weight were used. Forty-five of these animals were castrated and allowed to go untreated for 1 month to produce maximal ventral prostatic and seminal vesicle involution. After this 1 month period, 40 of the 45 castrated animals were implanted subcutaneously in the flank with a 2.5 cm long testosterone filled silastic capsule. The 50 animals were set up in 10 groups as follows:
# (§3) The animals were administered the 5-α-reductase inhibiting compounds twice a day (BID) for 10 consecutive days. This test compound was dissolved in propylene glycol and diluted in normal saline. At the end of the treatment period blood was collected from the animals and then they were sacrificed, the ventral prostrates were excised and weighed, and DHT levels were measured by the following procedure.
# [3] = system: involuted ventral prostate; experiment: testosterone induced regrowth of the involuted ventral prostate of castrated male rats; type: in vivo, rat; conditions: castrated + testosterone implant, 10 days, N = 5 rats/group
# Description: Certain combinations of the invention were tested for their in vivo potency in inhibiting steroid 5-α-reductase activity.
# as §1, §2, §3
# Prostate tissue was excised, trimmed, weighed, minced and washed with phosphate buffer. The tissue then was homogenized in phosphate buffer and extracted by addition of ethyl acetate and mixing on an orbital mixer for forty-five minutes. The ethyl acetate was evaporated, the residue was reconstituted in ethanol, and was centrifuge filtered using […] filter paper. The components then were separated using reverse-phase HPLC collecting the DHT fraction. The fraction was reduced to dryness and reconstituted in standard commercial DHT assay buffer. DHT levels then were measured using standard techniques such as radioimmunoassay.
# [4] = system: involuted ventral prostate; conditions: Stoner, et al. (1987) Endocrinology 120:774; cited from earlier work
mechanism of inhibition versus testosterone [1],Structure (SMILES),Seminal Vesicle DNA (μg/gland) ([2]; BID 12.5 mg/kg oral),Seminal Vesicle weight (mg/gland) ([2]; BID 12.5 mg/kg oral),Seminal Vesicle DNA (μg/gland) ([2]; BID 25 mg/kg oral),Seminal Vesicle weight (mg/gland) ([2]; BID 25 mg/kg oral),Seminal Vesicle DNA (μg/gland) ([2]; BID 50 mg/kg oral),Seminal Vesicle weight (mg/gland) ([2]; BID 50 mg/kg oral),Ventral Prostate DNA (μg/gland) ([3]; BID 12.5 mg/kg oral),Ventral Prostate weight (mg/gland) ([3]; BID 12.5 mg/kg oral),Ventral Prostate DNA (μg/gland) ([3]; BID 25 mg/kg oral),Ventral Prostate weight (mg/gland) ([3]; BID 25 mg/kg oral),Ventral Prostate DNA (μg/gland) ([3]; BID 50 mg/kg oral),Ventral Prostate weight (mg/gland) ([3]; BID 50 mg/kg oral),plateau dose-response effect on prostate weight reported in other studies [4]
uncompetitive inhibitor,"CC(C)(C)NC(=O)[C@H]1CC[C@H]2[C@@H]3CC=C4C=C(C(=O)O)CC[C@]4(C)[C@H]3CC[C@]12C [compound C, N-t-butyl-androst-3,5-diene-17β-carboxamide-3-carboxylic acid]",851 ± 47 μg/gland,158 ± 15 mg/gland,890 ± 58 μg/gland,170 ± 19 mg/gland,855 ± 63 μg/gland,159 ± 20 mg/gland,359 ± 36 μg/gland,154 ± 22 mg/gland,383 ± 29 μg/gland,143 ± 17 mg/gland,316 ± 52 μg/gland,147 ± 15 mg/gland,–
competitive inhibitor,"CC(C)(C)NC(=O)[C@H]1CC[C@H]2[C@@H]3CC[C@H]4NC(=O)C=C[C@]4(C)[C@H]3CC[C@]12C [compound A, N-t-butyl-5-α-androst-1-ene-4-aza-17β-carboxamide-3-one]",692 ± 51 μg/gland,118 ± 5 mg/gland,708 ± 72 μg/gland,108 ± 10 mg/gland,698 ± 39 μg/gland,108 ± 7 mg/gland,289 ± 17 μg/gland,71 ± 11 mg/gland,290 ± 25 μg/gland,55 ± 7 mg/gland,284 ± 19 μg/gland,62 ± 7 mg/gland,plateau dose-response effect

Structure (SMILES),mechanism of inhibition versus testosterone [1],Seminal Vesicle DNA (μg/gland) ([2]; BID 12.5 mg/kg oral),Seminal Vesicle weight (mg/gland) ([2]; BID 12.5 mg/kg oral),Seminal Vesicle DNA (μg/gland) ([2]; BID 25 mg/kg oral),Seminal Vesicle weight (mg/gland) ([2]; BID 25 mg/kg oral),Seminal Vesicle DNA (μg/gland) ([2]; BID 50 mg/kg oral),Seminal Vesicle weight (mg/gland) ([2]; BID 50 mg/kg oral),Ventral Prostate DNA (μg/gland) ([3]; BID 12.5 mg/kg oral),Ventral Prostate weight (mg/gland) ([3]; BID 12.5 mg/kg oral),Ventral Prostate DNA (μg/gland) ([3]; BID 25 mg/kg oral),Ventral Prostate weight (mg/gland) ([3]; BID 25 mg/kg oral),Ventral Prostate DNA (μg/gland) ([3]; BID 50 mg/kg oral),Ventral Prostate weight (mg/gland) ([3]; BID 50 mg/kg oral),plateau dose-response effect on prostate weight reported in other studies [4]
"CC(C)N(C(=O)[C@H]1CC[C@H]2[C@@H]3CC=C4C=C(C(=O)O)CC[C@]4(C)[C@H]3CC[C@]12C)C(C)C [compound B, N,N-diisopropyl-androst-3,5-diene-17β-carboxamide-3-carboxylic acid]",uncompetitive inhibitor,–,–,–,–,–,–,–,–,–,–,–,–,–
